Experimental data as given in patent publication US20060276464A1, “Diarylsulfone sulfonamides and use thereof” (Wyeth, priority 2005, published 2006).
Read-outs that look alike come from different tables or passages of the source.

Tests used:
SFRP-1 [1] = biological target: T1, SFRP-1 (Homo sapiens, UniProt Q8N474); test: Fluorescence polarization binding assay (competitive displacement of a probe compound from SFRP-1); settings: fluorescence anisotropy, 45 nM SFRP-1, 20 nM probe;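 further: test compound competes with a fluorescent probe held by SFRP-1, seen as a drop in probe anisotropy after incubation in darkness, with anisotropy as function of rising compound dose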
T1 sequence (Q8N474 32-314): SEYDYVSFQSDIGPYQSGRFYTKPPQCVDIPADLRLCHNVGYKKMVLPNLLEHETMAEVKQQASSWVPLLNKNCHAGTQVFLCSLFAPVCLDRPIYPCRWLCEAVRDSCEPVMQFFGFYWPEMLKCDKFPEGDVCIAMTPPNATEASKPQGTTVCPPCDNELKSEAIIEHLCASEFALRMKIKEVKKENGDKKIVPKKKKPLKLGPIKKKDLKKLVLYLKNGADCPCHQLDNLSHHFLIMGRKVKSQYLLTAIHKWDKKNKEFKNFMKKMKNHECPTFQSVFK

SFRP-1 [2] = biological target: T1, SFRP-1; test: Cell-based assay for in vitro measurement of SFRP-1/SARP2 antagonist activity (U2OS cells co-transfected with 16x TCF-tk-Luciferase reporter, Wnt and hSFRP-1); settings: for fold induction at 10 µM / fold induction at 15 µM: U2OS; for fold induction at 10 µM: read-out: Fold Induction with SFRP-1, U2OS cells, single dose 10 μM, luciferase reporter, fold induction over SFRP-1 control;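 on all read-outs here: U2OS cells co-transfected with a TCF-tk luciferase reporter, a Wnt vector, hSFRP-1 or empty vector and CMV-βgal, luciferase luminescence read in cell lysates alongside βgal activity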
[3] = read-out: Fold Induction with SFRP-1, Conc 15 μM, single dose, luciferase reporter, fold induction over SFRP-1 control, cells with SFRP-1
[4] = read-out: Fold Induction without SFRP-1, Conc 15 μM, single dose, luciferase reporter, cells without SFRP-1 (specificity control)
[5] = read-out: Fold Induction with SFRP-1, Conc 15 μM, with SFRP-1, fold induction over SFRP-1 control, single dose
[6] = read-out: Fold Induction without SFRP-1, Conc 15 μM, without SFRP-1, single dose

Row | SMILES | IC50 (SFRP-1 [1]) | EC50 (SFRP-1 [2]) | fold induction at 10 µM (SFRP-1 [2]) | fold induction at 15 µM (SFRP-1 [2]; [3]) | fold induction at 15 µM (SFRP-1 [2]; [4]) | fold induction at 15 µM (SFRP-1 [2]; [5]) | fold induction at 15 µM (SFRP-1 [2]; [6])
1 | O=S(=O)(NC1CCN(CCN2CCOCC2)CC1)c1cc(S(=O)(=O)c2ccccc2)ccc1C(F)(F)F [Example 1019, N-[1-(2-morpholin-4-ylethyl)piperidin-4-yl]-5-(phenylsulfonyl)-2-(trifluoromethyl)benzenesulfonamide] | 290 nM | 898 nM | – | – | – | – | –
2 | O=C(O)c1cccc(S(=O)(=O)N2CCCC2CCNS(=O)(=O)c2cc(S(=O)(=O)c3ccccc3)ccc2C(F)(F)F)c1 (stereo not shown) [Example 920, 3-({2-[2-({[5-(phenylsulfonyl)-2-(trifluoromethyl)phenyl]sulfonyl}amino)ethyl]pyrrolidin-1-yl)sulfonyl)benzoic acid] | 280 nM | 1810 nM | 2.2 | – | – | – | –
3 | CCCc1ccc(S(=O)(=O)c2ccccc2)cc1S(=O)(=O)NC1CCCC1 [Example 554, N-Cyclopentyl-5-(phenylsulfonyl)-2-propylbenzenesulfonamide] | 1700 nM | – | – | 2.6 | 1.1 | – | –
4 | COc1cccc(S(=O)(=O)c2ccc(C(C)C)c(S(=O)(=O)NCCc3ccccn3)c2)c1 [Example 456, 2-isopropyl-5-[(3-methoxyphenyl)sulfonyl]-N-(2-pyridin-2-ylethyl)benzenesulfonamide] | 800 nM | – | – | – | – | 3.6 | 1
5 | COc1ccc(Cl)cc1S(=O)(=O)c1ccc(C(C)C)c(S(=O)(=O)NCCc2ccccn2)c1 [Example 509, 5-[(5-chloro-2-methoxyphenyl)sulfonyl]-2-isopropyl-N-(2-pyridin-2-ylethyl)benzenesulfonamide] | 1200 nM | – | – | 1.9 | 1 | – | –
6 | CC(C)c1ccc(S(=O)(=O)c2ccccc2)cc1S(=O)(=O)NCC(O)c1ccccc1 (stereo not shown) [Example 736, N-(2-hydroxy-2-phenylethyl)-2-isopropyl-5-(phenylsulfonyl)benzenesulfonamide] | 400 nM | 1760 nM | 5 | – | – | – | –
7 | N[C@H]1CC[C@H](NS(=O)(=O)c2cc(S(=O)(=O)c3ccccc3)ccc2C(F)(F)F)CC1 [Example 959, N-(trans-4-aminocyclohexyl)-5-(phenylsulfonyl)-2-(trifluoromethyl)benzenesulfonamide] | 400 nM | 390 nM | 3.7 | – | – | – | –
8 | CC[C@H](C)C(CO)Nc1ccc(S(=O)(=O)c2ccc(C(C)C)c(S(=O)(=O)NCCn3ccnc3)c2)cc1 (stereo partly drawn) [Example 453, 5-[(4-{[(2S)-1-(hydroxymethyl)-2-methylbutyl]amino}phenyl)sulfonyl]-N-[2-(1H-imidazol-1-yl)ethyl]-2-isopropylbenzenesulfonamide] | 300 nM | – | – | – | – | 4 | 1.1
9 | COc1ccc(NC(=S)N2CCC(NS(=O)(=O)c3cc(S(=O)(=O)c4ccc(F)cc4)ccc3C(C)C)CC2)cc1 [Example 695, 4-[({5-[(4-fluorophenyl)sulfonyl]-2-isopropylphenyl}sulfonyl)amino]-N-(4-methoxyphenyl)piperidine-1-carbothioamide] | 190 nM | 7100 nM | 2.1 | – | – | – | –
10 | COc1ccccc1OC(=O)N1CCC(NS(=O)(=O)c2cc(S(=O)(=O)c3ccccc3)ccc2C)CC1 [Example 489, 2-methoxyphenyl 4-({[2-methyl-5-(phenylsulfonyl)phenyl]sulfonyl}amino)piperidine-1-carboxylate] | 1000 nM | – | – | 2.4 | 1.1 | – | –
11 | O=S(=O)(N[C@@H]1CCCNC1)c1cc(S(=O)(=O)c2ccccc2)ccc1C(F)(F)F [Example 791, 5-(phenylsulfonyl)-N-[(3R)-piperidin-3-yl]-2-(trifluoromethyl)benzenesulfonamide] | 3000 nM | – | 3.8 | – | – | – | –
12 | O=C(N1CCC(NS(=O)(=O)c2cc(S(=O)(=O)c3ccccc3)ccc2Cl)CC1)C(F)(F)F [Example 647, 2-chloro-5-(phenylsulfonyl)-N-[1-(trifluoroacetyl)piperidin-4-yl]benzenesulfonamide] | 1400 nM | – | – | 3.9 | 1.1 | – | –
13 | CC(C)c1ccc(S(=O)(=O)c2ccccc2)cc1S(=O)(=O)NCCc1cccnc1 [Example 672, 2-isopropyl-5-(phenylsulfonyl)-N-(2-pyridin-3-ylethyl)benzenesulfonamide] | 300 nM | 3120 nM | 4.2 | – | – | – | –
14 | CN(CCNS(=O)(=O)c1cc(S(=O)(=O)c2ccccc2)ccc1C(F)(F)F)C(=O)N[C@@H]1CCCNC1 [Example 1022, N-[2-(methyl{[(3R)-piperidin-3-ylamino]carbonyl}amino)ethyl]-5-(phenylsulfonyl)-2-(trifluoromethyl)benzenesulfonamide] | 170 nM | 726 nM | – | – | – | – | –
15 | CC(C)(C)OC(=O)N[C@H]1CC[C@H](NS(=O)(=O)c2cc(S(=O)(=O)c3ccccc3)ccc2C(F)(F)F)CC1 [Example 901, tert-butyl [trans-4-({[5-(phenylsulfonyl)-2-(trifluoromethyl)phenyl]sulfonyl}amino)cyclohexyl]carbamate] | 450 nM | 224 nM | 3.4 | – | – | – | –
16 | CC(=O)N1CC[C@H](C(=O)N2CCC(NS(=O)(=O)c3cc(S(=O)(=O)c4ccccc4)ccc3C(F)(F)F)CC2)C1 [Example 1065, N-(1-{[(3S)-1-acetylpyrrolidin-3-yl]carbonyl}piperidin-4-yl)-5-(phenylsulfonyl)-2-(trifluoromethyl)benzenesulfonamide] | 50 nM | 167 nM | – | – | – | – | –
17 | CCCc1ccc(S(=O)(=O)c2ccccc2)cc1S(=O)(=O)NC1CCNCC1 [Example 925, 5-(phenylsulfonyl)-N-piperidin-4-yl-2-propylbenzenesulfonamide] | 8000 nM | 2150 nM | 3 | – | – | – | –
18 | CN(CCNS(=O)(=O)c1cc(S(=O)(=O)c2ccccc2)ccc1C(F)(F)F)C(=O)Nc1ccc(F)cc1F [Example 832, N-{2-[{[(2,4-difluorophenyl)amino]carbonyl}(methyl)amino]ethyl}-5-(phenylsulfonyl)-2-(trifluoromethyl)benzenesulfonamide] | 250 nM | 2190 nM | 3.4 | – | – | – | –
19 | Cc1ccc(S(=O)(=O)c2ccc3[nH]ccc3c2)cc1S(=O)(=O)NCCc1ccccn1 [Example 427, 5-(1H-indol-5-ylsulfonyl)-2-methyl-N-(2-pyridin-2-ylethyl)benzenesulfonamide] | 1100 nM | – | – | – | – | 2 | 0.9
20 | CCCc1ccc(S(=O)(=O)c2ccc(F)cc2)cc1S(=O)(=O)NCCCn1ccnc1 [Example 565, 5-[(4-Fluorophenyl)sulfonyl]-N-[3-(1H-imidazol-1-yl)propyl]-2-propylbenzenesulfonamide] | 500 nM | – | – | 4 | 1.2 | – | –
21 | CC(C)(C)OC(=O)N1CSC[C@H]1C(=O)N1CCC(NS(=O)(=O)c2cc(S(=O)(=O)c3ccccc3)ccc2C(F)(F)F)CC1 [Example 1055, tert-butyl (4R)-4-{[4-({[5-(phenylsulfonyl)-2-(trifluoromethyl)phenyl]sulfonyl}amino)piperidin-1-yl]carbonyl}-1,3-thiazolidine-3-carboxylate] | 50 nM | 96 nM | – | – | – | – | –
